Measurements as given in US9290476B2, “Methylene linked quinolinyl modulators of RORγt” (Janssen Pharmaceutica NV, priority 2012, dated 2016).
Structures can show the parent of a compound that is named as a salt. Where two headings read alike, the source gives them in different places.

How the values were obtained:
human RORγt LBD = human RORγt LBD (Homo sapiens (Human), UniProt P51449); experiment: RORγt reporter assay (GAL4-RORγt LBD luciferase in HEK293T cells); type: cell-based; conditions: for IC50 / RORγt reporter Assay, % inhibition @ 6 μM: HEK293T cells; for IC50: 24 hours compound treatment; for inhibition at 6 µM: HEK-293T, read-out: RORγt reporter Assay, % inhibition @ 6 μM, HEK293T cells, 6 μM
Procedure, shortened: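 HEK293T cells transiently co-transfected with GAL4-DBD–wild-type human RORγt LBD (pBIND) and GAL4-responsive firefly luciferase reporter (pGL4.31); renilla luciferase from pBIND normalises transfection/viability. Cells in phenol-red-free DMEM, 5% lipid-reduced FCS, treated with compound 24 h. Firefly/renilla ratio plotted against compound concentration.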

[1] = biological target: human RORγt ligand binding domain (RORγt LBD) (Homo sapiens (Human), UniProt P51449); experiment: RORγt ThermoFluor assay (thermal shift binding affinity); conditions: estimated from thermal shift
Procedure, shortened: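 Thermal shift used 0.065 mg/mL RORγt LBD with 60 μM 1,8-ANS in 100 mM Hepes pH 7.0, 10 mM NaCl, 2.5 mM GSH and 0.002% Tween-20, heated at 1 °C/min. Fluorescence was excited at 380–400 nm and emission read at 500 nm.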

[2] = tested on: IL-17 production by CD4 T cells; experiment: Human Th17 assay (IL-17 production by CD4 T cells under Th17 differentiation); type: cell-based; conditions: human CD4+ T cells, IL-17 after 3 days, read-out: Human Th17 Assay, IC50 μM
Source text: The human Th17 assay tests the effect of RORγt modulatory compounds on IL-17 production by CD4 T cells under conditions which favor Th17 differentiation.
Total CD4^+ T cells were isolated from the peripheral blood mononuclear cells (PBMC) of healthy donors using a CD4^+ T cell isolation kit II, following the manufacturer's instructions (Miltenyi Biotec). Cells were resuspended in a medium of RPMI-1640 supplemented with 10% fetal bovine serum, penicillin, streptomycin, glutamate, and β-mercaptoethanol and were added to 96-well plates at 1.5×10^5 per 100 μL per well. 50 μL of compound at titrated concentrations in DMSO were added into each well at final DMSO concentration at 0.2%. Cells were incubated for 1 hour, then 50 μL of Th17 cell differentiation medium was added to each well. The final concentrations of antibodies and cytokines (R&D Systems) in differentiation medium were: 3×10^6/mL anti-CD3/CD28 beads (prepared using human T cell activation/expansion kit, Miltenyi Biotec), 10 μg/mL anti-IL4, 10 μg/mL anti-IFNγ, 10 ng/mL IL1β, 10 ng/mL IL23, 50 ng/mL IL6, 3 ng/mL TGFβ and 20 U/mL IL2. Cells were cultured at 37° C. and 5% CO2 for 3 days. Supernatants were collected and the accumulated IL-17 in culture was measured by using MULTI-SPOT® Cytokine Plate following manufacture's instruction (Meso Scale Discovery). The plate was read using Sector Imager 6000, and IL-17 concentration was extrapolated from the standard curve. The IC50s were determined by GraphPad.

Sequence of human RORγt LBD (P51449 258-518): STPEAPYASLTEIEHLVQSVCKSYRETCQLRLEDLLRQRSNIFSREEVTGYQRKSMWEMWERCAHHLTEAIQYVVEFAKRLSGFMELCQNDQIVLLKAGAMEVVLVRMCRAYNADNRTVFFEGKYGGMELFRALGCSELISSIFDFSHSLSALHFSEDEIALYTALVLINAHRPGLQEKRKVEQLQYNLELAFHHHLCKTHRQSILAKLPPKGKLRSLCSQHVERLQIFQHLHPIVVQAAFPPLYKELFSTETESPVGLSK
Sequence of human RORγt ligand binding domain (RORγt LBD) (P51449 other isoform, or with tags, fused parts or gaps): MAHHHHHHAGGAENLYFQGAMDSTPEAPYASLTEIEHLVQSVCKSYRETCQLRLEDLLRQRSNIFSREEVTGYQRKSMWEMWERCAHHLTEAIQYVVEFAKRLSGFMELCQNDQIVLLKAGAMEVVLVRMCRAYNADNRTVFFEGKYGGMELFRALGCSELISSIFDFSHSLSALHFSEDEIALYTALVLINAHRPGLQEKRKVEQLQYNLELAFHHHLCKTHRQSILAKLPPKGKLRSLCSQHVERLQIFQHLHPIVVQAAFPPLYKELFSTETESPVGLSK

| SMILES | IC50 (human RORγt LBD) [µM] | inhibition at 6 µM (human RORγt LBD) [%] | Kd [1] [µM] | IC50 [2] [µM] | IC50 ([2]; Homo sapiens, CD4+ T, 72 h) [µM] | RORγt reporter Assay, % inhibition @ 6 μM (human RORγt LBD) [%] |
| --- | --- | --- | --- | --- | --- | --- |
| COc1nc2ccc(C(O)(c3cnnn3C)C3CN(C(C)=O)C3)cc2c(Cl)c1Cc1ccc(C(F)(F)F)cc1 (single isomer, unassigned) [Example 97B, 1-(3-((4-Chloro-2-methoxy-3-(4-(trifluoromethyl)benzyl)quinolin-6-yl)(hydroxy)(1-methyl-1H-1,2,3-triazol-5-yl)methyl)azetidin-1-yl)ethanone] | 0.0059 | 98 | 0.0014 | 0.0034 | – | – |
| COc1ccc(C(O)(c2cccnc2)c2ccc3nc(Cl)c(Cc4ccc(-n5cccn5)cc4)c(Cl)c3c2)cc1 (stereo not shown) [Example 47, (3-(4-(1H-Pyrazol-1-yl)benzyl)-2,4-dichloroquinolin-6-yl)(4-methoxyphenyl)(pyridin-3-yl)methanol] | 0.17 | 102 | 0.14 | – | 0.18 | – |
| Cn1cncc1C(O)(c1ccc(C(F)(F)F)nc1)c1ccc2nc(N3CCC3)c(Cc3ccc(-n4cccn4)cc3)c(Cl)c2c1 (single isomer, unassigned) [Example 68C, (3-(4-(1H-pyrazol-1-yl)benzyl)-2-(azetidin-1-yl)-4-chloroquinolin-6-yl)(1-methyl-1H-imidazol-5-yl)(6-(trifluoromethyl)pyridin-3-yl)methanol] | 0.21 | – | 0.03 | 0.2 | – | 100 |
| COc1nc2c(OC)cc(C(O)(c3ccc(C(F)(F)F)nc3)c3cncn3C)cc2c(Cl)c1Cc1ccc(-n2cccn2)cc1 (single isomer, unassigned) [Example 59B, (3-(4-(1H-pyrazol-1-yl)benzyl)-4-chloro-2,8-dimethoxyquinolin-6-yl)(1-methyl-1H-imidazol-5-yl)(6-(trifluoromethyl)pyridin-3-yl)methanol] | 0.14 | 106 | 0.0044 | – | 0.098 | – |
| CCc1nc2ccc(C(O)(c3cnnn3C)C3CN(C(C)=O)C3)cc2c(Cl)c1Cc1ccc(C(F)(F)F)cc1 (single isomer, unassigned) [Example 90C, 1-(3-((4-Chloro-2-ethyl-3-(4-(trifluoromethyl)benzyl)quinolin-6-yl)(hydroxy)(1-methyl-1H-1,2,3-triazol-5-yl)methyl)azetidin-1-yl)ethanone] | 0.0054 | – | 0.00032 | 0.0061 | – | 98 |
| COc1nc2c(F)cc(C(O)(c3ccc(C(F)(F)F)nc3)c3cncn3C)cc2c(Cl)c1Cc1ccc(-n2cccn2)cc1 (single isomer, unassigned) [Example 58B, (3-(4-(1H-pyrazol-1-yl)benzyl)-4-chloro-8-fluoro-2-methoxyquinolin-6-yl)(1-methyl-1H-imidazol-5-yl)(6-(trifluoromethyl)pyridin-3-yl)methanol] | 0.055 | 103 | 0.014 | – | 0.1 | – |
| COc1nc2ccc(C(O)(c3ccc(Cl)cc3)c3cncn3C)cc2c(Cl)c1Cc1cc2ccccc2s1 (single isomer, unassigned) [Example 36C, (3-(benzo[b]thiophen-2-ylmethyl)-4-chloro-2-methoxyquinolin-6-yl)(4-chlorophenyl)(1-methyl-1H-imidazol-5-yl)methanol] | 0.1 | – | 0.011 | – | 0.066 | 101 |
| CCc1nc2ccc(C(O)(c3cnnn3C)C3CN(S(C)(=O)=O)C3)cc2c(Cl)c1Cc1ccc(C(F)(F)F)cc1 (single isomer, unassigned) [Example 91B, (4-Chloro-2-ethyl-3-(4-(trifluoromethyl)benzyl)quinolin-6-yl)(1-methyl-1H-1,2,3-triazol-5-yl)(1-(methylsulfonyl)azetidin-3-yl)methanol] | – | 97 | – | 0.022 | – | – |
| COc1nc2ccc(C(O)(c3ccc(C)nc3C)c3cnnn3C)cc2c(C#N)c1Cc1ccc(C(F)(F)F)cc1 (single isomer, unassigned) [Example 78C, 6-((2,6-Dimethylpyridin-3-yl)(hydroxy)(1-methyl-1H-1,2,3-triazol-5-yl)methyl)-2-methoxy-3-(4-(trifluoromethyl)benzyl)quinoline-4-carbonitrile] | – | – | – | – | 0.004 | 99 |
| COc1nc2ccc(C(O)(c3ccc(C)nc3C)c3cnnn3C)cc2c(Cl)c1Cc1ccc(C(F)(F)F)cc1 (single isomer, unassigned) [Example 77B, (4-chloro-2-methoxy-3-(4-(trifluoromethyl)benzyl)quinolin-6-yl)(2,6-dimethylpyridin-3-yl)(1-methyl-1H-1,2,3-triazol-5-yl)methanol] | – | 98 | – | 0.36 | – | – |
| COc1nc2ccc(C(O)(c3cnnn3C)c3cnc(C)n3C)cc2c(Cl)c1Cc1ccc(C(F)(F)F)cc1 (single isomer, unassigned) [Example 80B, (4-chloro-2-methoxy-3-(4-(trifluoromethyl)benzyl)quinolin-6-yl)(1,2-dimethyl-1H-imidazol-5-yl)(1-methyl-1H-1,2,3-triazol-5-yl)methanol] | – | 92 | – | 0.05 | – | – |
| Cn1cncc1C(O)(c1ccc2nc(Cl)c(Cc3ccc(-n4cccn4)cc3)c(Cl)c2c1)c1cncs1 (stereo not shown) [Example 15, (3-(4-(1H-Pyrazol-1-yl)benzyl)-2,4-dichloroquinolin-6-yl)(1-methyl-1H-imidazol-5-yl)(thiazol-5-yl)methanol.TFA] | 0.013 | 104 | – | – | 0.024 | – |
| Cn1cncc1C(O)(c1ccc(C(F)(F)F)nc1)c1ccc2nc(C#N)c(Cc3ccc(-n4cccn4)cc3)c(C#N)c2c1 (single isomer, unassigned) [Example 72C, 3-(4-(1H-Pyrazol-1-yl)benzyl)-6-(hydroxy(1-methyl-1H-imidazol-5-yl)(6-(trifluoromethyl)pyridin-3-yl)methyl)quinoline-2,4-dicarbonitrile] | – | 100 | – | – | 0.055 | – |
| Cc1cc(C(O)(c2ccc(Cl)cc2)c2cncn2C)cc2c(Cl)c(Cc3ccc(-n4cccn4)cc3)c(Cl)nc12 (stereo not shown) [Example 27, (3-(4-(1H-Pyrazol-1-yl)benzyl)-2,4-dichloro-8-methylquinolin-6-yl)(4-chlorophenyl)(1-methyl-1H-imidazol-5-yl)methanol.TFA salt] | 0.29 | – | – | 0.3 | – | 97 |
| CCc1nc2ccc(C(O)(c3cnnn3C)C3CN(S(C)(=O)=O)C3)cc2c(Cl)c1Cc1ccc(C(F)(F)F)cc1 (single isomer, unassigned) [Example 91C, (4-Chloro-2-ethyl-3-(4-(trifluoromethyl)benzyl)quinolin-6-yl)(1-methyl-1H-1,2,3-triazol-5-yl)(1-(methylsulfonyl)azetidin-3-yl)methanol] | – | – | – | 0.0025 | – | 102 |
| Cn1cncc1C(O)(c1ccc(C(F)(F)F)nc1)c1ccc2nc(C#N)c(Cc3ccc(-n4cccn4)cc3)c(C#N)c2c1 (stereo not shown) [Example 72B, 3-(4-(1H-Pyrazol-1-yl)benzyl)-6-(hydroxy(1-methyl-1H-imidazol-5-yl)(6-(trifluoromethyl)pyridin-3-yl)methyl)quinoline-2,4-dicarbonitrile] | – | 99 | – | – | 0.025 | – |
| COc1nc2ccc(C(O)(c3cnnn3C)c3cnc(C)n3C)cc2c(Cl)c1Cc1ccc(C(F)(F)F)cc1 (single isomer, unassigned) [Example 80C, (4-chloro-2-methoxy-3-(4-(trifluoromethyl)benzyl)quinolin-6-yl)(1,2-dimethyl-1H-imidazol-5-yl)(1-methyl-1H-1,2,3-triazol-5-yl)methanol] | – | – | – | 0.002 | – | 93 |
| COc1nc2ccc(C(O)(c3ccc(Cl)cc3)c3cncn3C)cc2c(Cl)c1Cc1ccc(-n2cncn2)cc1 (single isomer, unassigned) [Example 64C, (3-(4-(1H-1,2,4-triazol-1-yl)benzyl)-4-chloro-2-methoxyquinolin-6-yl)(4-chlorophenyl)(1-methyl-1H-imidazol-5-yl)methanol] | – | – | – | – | 0.086 | 94 |
